# Data published in the Kinase Knowledgebase extract (Sharma et al. 2016).
# pIC50: −log10 of the molar value.
# Molecular target: MAPK14 (human) (UniProt Q16539)
# Assay: Inhibition of MAPK14 Kinase Activity
# MAPK14 (human), sequence (Q16539 whole entry, looked up): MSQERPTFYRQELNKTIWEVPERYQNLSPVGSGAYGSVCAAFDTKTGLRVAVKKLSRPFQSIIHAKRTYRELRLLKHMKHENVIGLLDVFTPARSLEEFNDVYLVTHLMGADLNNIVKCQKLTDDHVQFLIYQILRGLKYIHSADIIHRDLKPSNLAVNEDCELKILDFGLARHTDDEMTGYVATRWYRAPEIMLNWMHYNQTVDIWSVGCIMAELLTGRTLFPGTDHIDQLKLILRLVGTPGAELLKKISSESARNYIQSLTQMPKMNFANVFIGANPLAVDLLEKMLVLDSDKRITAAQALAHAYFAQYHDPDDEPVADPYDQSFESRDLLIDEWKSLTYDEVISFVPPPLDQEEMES
row,SMILES,pIC50
1,Cc1cc(C)cc(CC2CCC(=O)N(c3c(Cl)cncc3Cl)C2)c1 (configuration not stated),≥ 5.00
2,O=C1CCC(Oc2ccc3ccccc3c2)CN1c1c(Cl)cncc1Cl (configuration not stated),≥ 5.00
3,Cc1ccc(OC2CCC(=O)N(c3c(Cl)cccc3Cl)C2)cc1 (configuration not stated),≥ 5.00
4,O=C1NCC(Cc2ccccc2)CN1c1c(Cl)cccc1Cl (configuration not stated),≥ 5.00
5,COc1ccccc1CC1CCC(=O)N(c2c(Cl)ccnc2Cl)C1 (configuration not stated),≥ 5.00
6,O=C1CCC(Cc2ccc(F)cc2F)CN1c1c(Cl)cc(NCCN2CCCC2)cc1Cl (configuration not stated),≥ 5.00
7,O=C1CCC(Sc2ccc(Cl)cc2Cl)CN1C1C(Cl)CCCC1Cl (configuration not stated),≥ 5.00
8,Cc1cccc(C)c1N1CC(Cc2ccc(F)cc2F)CCC1=O (configuration not stated),≥ 5.00
9,O=C1CSC(Cc2cccc3ccccc23)CN1c1c(Cl)cccc1Cl (configuration not stated),≥ 5.00
10,COc1ccccc1CC1CCC(=O)N(C2C(Cl)CCCC2Cl)C1 (configuration not stated),≥ 5.00
11,COc1ccc(CC2CSC(=O)N(c3c(Cl)cccc3Cl)C2)cc1 (configuration not stated),≥ 5.00
12,Nc1ncc(Cl)c(N2CC(Oc3ccc(F)cc3F)CCC2=O)c1Cl (configuration not stated),≥ 5.00
13,NC(=O)C[C@H](N)C(=O)Nc1cc(Cl)c(N2CC(Cc3ccc(F)cc3F)CCC2=O)c(Cl)c1 (some centres not stated),≥ 5.00
14,O=C1CCC(Sc2ccc(F)cc2F)CN1c1c(Cl)cnc(CO)c1Cl (configuration not stated),≥ 5.00
15,Cc1cc(CCCCN(C)C)cc(C)c1N1CC(Cc2ccc(F)cc2F)CCC1=O (configuration not stated),≥ 5.00
16,COC(c1ccc(F)cc1F)C1CCC(=O)N(c2c(Cl)cccc2Cl)C1 (configuration not stated),≥ 5.00
17,O=C1CCC(Cc2ccccc2Cl)CN1c1c(Cl)ccnc1Cl (configuration not stated),≥ 5.00
18,O=C1CCC(Oc2ccc(F)cc2F)CN1c1c(Cl)csc1Cl (configuration not stated),≥ 5.00
19,Cc1ccccc1SC1CCC(=O)N(c2c(Cl)ccnc2Cl)C1 (configuration not stated),≥ 5.00

row,SMILES,pIC50
1,COC(=O)Nc1cc(Cl)c(N2CC(Cc3ccc(F)cc3F)CCC2=O)c(Cl)c1 (configuration not stated),≥ 5.00
2,Cc1cc(C(=O)NCCCC(=O)O)cc(C)c1N1CC(Cc2ccc(F)cc2F)CCC1=O (configuration not stated),≥ 5.00
3,O=C1CCC(Sc2ccc(F)cc2F)CN1C1C(Cl)CC(O)CC1Cl (configuration not stated),≥ 5.00
4,O=C(Cc1ccccc1)Nc1cc(Cl)c(N2CC(Cc3ccc(F)cc3F)CCC2=O)c(Cl)c1 (configuration not stated),≥ 5.00
5,O=C1CCC(Cc2ccccc2F)CN1c1c(Cl)cncc1Cl (configuration not stated),≥ 5.00
6,O=C1CCC(Sc2ccc(F)cc2)CN1c1c(Cl)cccc1Cl (configuration not stated),≥ 5.00
7,O=C1CCC(Cc2ccc(F)cc2F)CN1c1c(Cl)cc(N2CCNCC2)cc1Cl (configuration not stated),≥ 5.00
8,O=C1CC[C@@H](Cc2ccc(F)cc2F)CN1c1c(Cl)cccc1Cl,≥ 5.00
9,O=C1CCC(Sc2cccc3ccccc23)CN1c1c(Cl)ccnc1Cl (configuration not stated),≥ 5.00
10,O=C(Cc1ccccc1)NC1CCC(Cl)C(N2CC(Sc3ccc(F)cc3F)CCC2=O)C1Cl (configuration not stated),≥ 5.00
11,O=C1CCC(Cc2ccccc2Cl)CN1c1c(Cl)csc1Cl (configuration not stated),≥ 5.00
12,CNc1ccc(Cl)c(N2CC(Cc3ccc(F)cc3F)CCC2=O)c1Cl (configuration not stated),≥ 5.00
13,CN1CC(Cc2ccc(F)cc2F)CN(c2c(Cl)cc(O)cc2Cl)C1=O (configuration not stated),≥ 5.00
14,O=C1CCC(Sc2cc(Cl)cc(Cl)c2)CN1C1C(Cl)CCCC1Cl (configuration not stated),≥ 5.00
15,O=C(Cc1ccccc1)Nc1ccc(Cl)c(N2CC(Cc3ccc(F)cc3F)CCC2=O)c1Cl (configuration not stated),≥ 5.00
16,CNc1cc(Cl)c(N2CC(Cc3ccc(F)cc3F)CCC2=O)c(Cl)n1 (configuration not stated),≥ 5.00
17,O=C1CCC(Oc2ccc(F)cc2)CN1C1C(Cl)CCCC1Cl (configuration not stated),≥ 5.00
18,CC[C@@H]1C[C@@H](Cc2ccc(F)cc2F)CN(c2c(Cl)cccc2Cl)C1=O,≥ 5.00
19,O=C(O)c1cc(Cl)c(N2CC(Cc3ccc(F)cc3F)CCC2=O)c(Cl)c1 (configuration not stated),≥ 5.00

row,SMILES,pIC50
1,O=C1CCC(Sc2ccccc2F)CN1c1c(Cl)ccnc1Cl (configuration not stated),≥ 5.00
2,O=C1CCC(Oc2ccc(Cl)cc2)CN1c1c(Cl)ccnc1Cl (configuration not stated),≥ 5.00
3,O=C1CCC(Cc2cc(F)cc(F)c2)CN1c1c(Cl)cncc1Cl (configuration not stated),≥ 5.00
4,Cc1ccc(CC2CNC(=O)N(c3c(Cl)cccc3Cl)C2)cc1 (configuration not stated),≥ 5.00
5,O=C1CCC(Nc2ccc(F)cc2F)CN1c1c(Cl)cccc1Cl (configuration not stated),≥ 5.00
6,CN1CCC(Nc2cc(Cl)c(N3CC(Cc4ccc(F)cc4F)CCC3=O)c(Cl)c2)CC1 (configuration not stated),≥ 5.00
7,O=C1CCC(Oc2cc(F)cc(F)c2)CN1c1c(Cl)cncc1Cl (configuration not stated),≥ 5.00
8,COc1ccccc1OC1CCC(=O)N(c2c(Cl)csc2Cl)C1 (configuration not stated),≥ 5.00
9,O=C1NCC(Cc2ccc3ccccc3c2)CN1c1c(Cl)cccc1Cl (configuration not stated),≥ 5.00
10,CCN(CC)CCNc1cc(Cl)c(N2CC(Cc3ccc(F)cc3F)CCC2=O)c(Cl)c1 (configuration not stated),≥ 5.00
11,O=C1CSC(Cc2cc(Cl)cc(Cl)c2)CN1c1c(Cl)cccc1Cl (configuration not stated),≥ 5.00
12,Nc1cnc(Cl)c(N2CC(Oc3ccc(F)cc3F)CCC2=O)c1Cl (configuration not stated),≥ 5.00
13,O=C1SCC(Cc2ccc(F)cc2F)CN1c1c(Cl)cc(CO)cc1Cl (configuration not stated),≥ 5.00
14,CNC1CC(Cl)C(N2CC(Oc3ccc(F)cc3F)CCC2=O)C(Cl)C1 (configuration not stated),≥ 5.00
15,CNC(=O)CCc1cc(Cl)c(N2CC(Cc3ccc(F)cc3F)CCC2=O)c(Cl)c1 (configuration not stated),≥ 5.00
16,O=C1CCC(Cc2ccc(F)cc2F)CN1c1c(Cl)ncc(O)c1Cl (configuration not stated),≥ 5.00
17,O=C1CCC(Cc2ccc(F)cc2F)CN1c1c(Cl)cc(NCCn2ccnc2)cc1Cl (configuration not stated),≥ 5.00
18,Nc1ncc(Cl)c(N2CC(Cc3ccc(F)cc3F)CCC2=O)c1Cl (configuration not stated),≥ 5.00
19,O=C1CCC(Sc2ccc(F)cc2)CN1C1C(Cl)CCCC1Cl (configuration not stated),≥ 5.00
